Literature values as cited in patent publication US11559486B2, “Ready-to-use formulation for Vincristine Sulfate Liposome Injection” (Spectrum Pharmaceuticals, Inc., priority 2015, dated 2023).

Conditions: 0.45% aqueous sodium chloride and Ringers admixtures at 25° C. to 37° C.

## COc1cccc2c1C(=O)c1c(O)c3c(c(O)c1C2=O)C[C@@](O)(C(=O)CO)C[C@@H]3O[C@H]1C[C@H](N)[C@H](O)[C@H](C)O1 [Doxorubicin]
  degradation in chloride-containing admixtures: degrade rapidly

## CC[C@]1(O)C[C@H]2CN(CCc3c([nH]c4ccccc34)[C@@](C(=O)OC)(c3cc4c(cc3OC)N(C=O)[C@H]3[C@@](O)(C(=O)OC)[C@H](OC(C)=O)[C@]5(CC)C=CCN6CC[C@]43[C@@H]65)C2)C1 [vincristine, (3aR,3a^1R,4R,5S,5aR,10bR)-methyl-4-acetoxy-3a-ethyl-9-((5S,7S,9S)-5-ethyl-5-hydroxy-9-(methoxycarbonyl)-2,4,5,6,7,8,9,10-octahydro-1H-3,7-methano[1]azacycloundecino[5,4-b]indol-9-yl)-6-formyl-5-hydroxy-8-methoxy-3a,3a1,4,5,5a,6,11,12-octahydro-1H-indolizino[8,1-cd]carbazole-5-carboxylate]
  degradation in chloride-containing admixtures: degrade rapidly
